Here are results for 14 compounds from ChEMBL document CHEMBL1268944, “The antiplasmodial activity of norcantharidin analogs” (Bioorg Med Chem Lett, 2010).

Structures are written as SMILES. A value given as a limit tells only on which side of the number the result lay.

The term IC50 denotes the concentration that inhibits the measured activity by half. As usually defined, the inhibition is the change of the read-out against control, counted positive when it falls. A higher inhibition goes with a response far below the control.

Series [1] deals with Plasmodium falciparum. Briefly: Antiplasmodial activity against chloroquine-sensitive Plasmodium falciparum D6 assessed as inhibition of parasite LDH activity after 72 hrs by malstat reagent method. Particulars: D6, 72 h. It is filed as functional, organism-based.
Series [2] concerns Plasmodium falciparum. Briefly: Antiplasmodial activity against chloroquine-resistant Plasmodium falciparum W2 assessed as inhibition of parasite LDH activity […] after 72 hrs by malstat reagent method. Particulars: W2, 72 h. It is filed as functional, organism-based.
Series [3] can be described thus: Solubility of the compound in PP2A assay medium at 40 mM. It is filed as physicochemical. Particulars: 40000 µM.
A short description of series [4]: Solubility of the compound in PP1 assay medium at 40 mM. It is filed as physicochemical. Particulars: 40000 µM.
A short description of series [5]: Inhibition of human PP2A expressed in Escherichia coli BL21.
Series [6] in a line: Inhibition of human PP1 expressed in Escherichia coli BL21.
The species entered for series [7] is Homo sapiens. The experiment in a line: Inhibition of human PP2A at 100 uM.
The species entered for series [8] is Homo sapiens. Briefly: Inhibition of human PP1 at 100 uM.
Series [9] deals with Plasmodium falciparum. Briefly: Ratio of Norcantharidin IC50 to compound IC50 for chloroquine-resistant Plasmodium falciparum W2. It is filed as functional.
Series [10] deals with Plasmodium falciparum. The experiment in a line: Ratio of Norcantharidin IC50 to compound IC50 for chloroquine-sensitive Plasmodium falciparum D6. It is filed as functional.
Series [11] can be described thus: Inhibition of human PP1.
Series [12] is described as follows: Inhibition of human PP2A.

Regarding `CCCCCCCCCCCCNC(=O)C1C(C(=O)O)[C@@H]2CC[C@H]1O2` (stereo partly specified), the IC50 in the series on Plasmodium falciparum [1] is 70 µM; in the series with Plasmodium falciparum [2] it was 106 µM. The solubility result in [3] and in series [4] was “Insoluble” throughout.

For `C[C@@]12C(=O)OC(=O)[C@]1(C)[C@H]1CC[C@@H]2O1` [CANTHARIDIN], the IC50 in series [5] came out at 0.2 µM; in the series with Plasmodium falciparum [1] it was 9 µM; in the series with Plasmodium falciparum [2], 9 µM; in [6], 1.8 µM.

With `C=CCCNC(=O)C1C(C(=O)O)[C@@H]2CC[C@H]1O2` (stereo partly specified), the IC50 in the series with Plasmodium falciparum [1] and with Plasmodium falciparum [2] was greater than 500 µM throughout. In addition, the solubility result in series [3] and in series [4] was “Insoluble” each time.

Consider `O=C(O)[C@@H]1[C@H](C(=O)O)[C@H]2CC[C@@H]1O2` [ENDOTHALL], for which the IC50 in series [5] is 0.09 µM; in series [6], 4 µM.

Regarding `O=C(O)C1C(C(=O)NCCc2cnc[nH]2)[C@H]2CC[C@@H]1O2` (stereo partly specified), the IC50 in the series with Plasmodium falciparum [1] came out at 307 µM; in the series on Plasmodium falciparum [2], 267 µM. Moreover, the inhibition in the series listed under Homo sapiens [7] turned out to be 26%; in the series filed under Homo sapiens [8], 35%.

Turning to `CC(C)(C)c1ccccc1NC(=O)C1C(C(=O)O)[C@@H]2CC[C@H]1O2` (stereo partly specified), the IC50 in the series on Plasmodium falciparum [1] and in the series on Plasmodium falciparum [2] was greater than 500 µM in each case. The values for the inhibition in the series filed under Homo sapiens [7] and in the series filed under Homo sapiens [8] were 16% and 9%, respectively.

As for `Cc1cccc(NC(=O)C2C(C(=O)O)[C@@H]3CC[C@H]2O3)c1C` (stereo partly specified), the IC50 was determined as 260 µM in the series on Plasmodium falciparum [1] and 220 µM in the series with Plasmodium falciparum [2]. The inhibition worked out at 62% in the series filed under Homo sapiens [7] and 84% in the series listed under Homo sapiens [8].

As to `Cc1cc(C)c(NC(=O)C2C(C(=O)O)[C@@H]3CC[C@H]2O3)c(C)c1` (stereo partly specified), the IC50 was 340 µM with Plasmodium falciparum [1] and greater than 500 µM with Plasmodium falciparum [2]. Moreover, the inhibition in the series filed under Homo sapiens [7] was found to be 23%; in the series listed under Homo sapiens [8], 63%.

On to `O=C1OC(=O)C2C3CCC(O3)C12` (stereo unspecified) [DEMETHYL-CANTHARIDIN], for which the IC50 in series [5] came out at 0.4 µM; with Plasmodium falciparum [1] it was 60 µM; with Plasmodium falciparum [2], 50 µM; in series [6], 2 µM.

As for `O=C(O)C1C(C(=O)Nc2cccc3ccccc23)[C@H]2CC[C@@H]1O2` (stereo partly specified), the figures for the IC50 with Plasmodium falciparum [1] and in the series with Plasmodium falciparum [2] were 210 µM and 193 µM, respectively. In addition, the inhibition was found to be 73% in the series filed under Homo sapiens [7] and 79% in the series listed under Homo sapiens [8].

`C=CCNC(=O)C1C(C(=O)O)[C@@H]2CC[C@H]1O2` (stereo partly specified): the IC50 amounted to 3 µM in the series on Plasmodium falciparum [1], 3 µM in the series with Plasmodium falciparum [2], 40 µM in [11] and 10 µM in series [12]. Moreover, the “Ratio IC50” value in the series on Plasmodium falciparum [9] and with Plasmodium falciparum [10] was 20 throughout.

Turning to `CC(C)(C)c1ccc(C(C)(C)C)c(NC(=O)C2C(C(=O)O)[C@@H]3CC[C@H]2O3)c1` (stereo partly specified), the IC50 was 40 µM in the series on Plasmodium falciparum [1] and 205 µM with Plasmodium falciparum [2]. The solubility entry in series [3] and in series [4] was “Insoluble” in each case.

For `O=C(O)C1C(C(=O)Nc2ccccc2CO)[C@H]2CC[C@@H]1O2` (stereo partly specified), the results for the IC50 in the series with Plasmodium falciparum [1] and in the series on Plasmodium falciparum [2] were 275 µM and 333 µM, respectively. In addition, the inhibition in the series filed under Homo sapiens [7] came out at 30%; in the series listed under Homo sapiens [8] it was 84%.

As for `CSc1ccccc1NC(=O)C1C(C(=O)O)[C@@H]2CC[C@H]1O2` (stereo partly specified), the IC50 in the series with Plasmodium falciparum [1] is 340 µM; in the series on Plasmodium falciparum [2], greater than 500 µM. The inhibition was 58% in the series listed under Homo sapiens [7] and 76% in the series filed under Homo sapiens [8].
